Assay results taken from patent US6335350B1, “Acetamide and substituted acetamide-containing thiourea inhibitors of herpes viruses” (American Home Products Corporation, priority 1998, dated 2002).
In brackets after ≈: the same amount, converted by molar mass.

Legend:
HCMV wild-type = assay: HCMV yield assay; assay type: cell-based, human cytomegalovirus; settings: Human betaherpesvirus 5, Fibroblast, human foreskin fibroblasts; read-out: IC50 Ug/ml HCMV
Summary of the method: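 HCMV wild-type infected human foreskin fibroblast monolayers at MOI typically 0.2 with varying compound concentrations; virus yield harvested at 3 days post-infection and titered on fibroblasts without inhibitor, plaques counted at 2 weeks. IC50 or IC90 = compound amount reducing yield titer by 50% or 90%.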

VZV strain Ellen = assay: VZV Antiviral (ELISA) Assay; assay type: cell-based, varicella-zoster virus; settings: Human alphaherpesvirus 3, Fibroblast, human foreskin fibroblast cells; for IC50: read-out: IC50 Ug/ml VZV; for inhibition at 10 µg/mL: read-out: % inhibition 10 ug/ml VZV, 10 ug/ml
Summary of the method: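 Antiviral IC50 is derived by comparing fluorescence with and without compound after a three-day culture of VZV-infected plus uninfected foreskin fibroblasts. Replication is quantified by ELISA against glycoprotein II, using a β-galactosidase secondary and methyl umbelliferyl-β-D-galactoside.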

HSV-1 = assay: HSV Antiviral (ELISA) Assay; assay type: cell-based, herpes simplex virus type 1; settings: Human alphaherpesvirus 1, Vero, Vero cells, HSV-1; read-out: IC50 Ug/ml HSV
Summary of the method: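 Vero cells in DMEM/2% FBS pretreated with compound 30 min before HSV-1 infection (MOI 0.006), then ~24 h at 37 °C. Viral gD detected by ELISA with β-galactosidase secondary and 4-methylumbelliferyl-galactoside (ex 365/em 450 nm); IC50 from fluorescence versus untreated infected cells.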

| IC50 (HSV-1) [µg/mL] | Structure (SMILES) | IC50 (HCMV wild-type) [µg/mL] | IC50 (VZV strain Ellen) [µg/mL] | inhibition at 10 µg/mL (VZV strain Ellen) [%] |
| --- | --- | --- | --- | --- |
| 7 (≈ 16.3 µM) | COc1cc(OC)c(NC(=S)Nc2cc(O)c(NC(C)=O)cc2Cl)cc1Cl [Example 321, N-{5-Chloro-4-[3-(5-chloro-2,4-dimethoxy-phenyl)-thioureido]-2-hydroxy-phenyl}-acetamide] | 18 (≈ 41.8 µM) | > 10 | 28 |
| > 10 | CCOc1ccc(NC(=S)Nc2ccc(NC(C)=O)cc2)cc1Cl [Example 268, N-{4-[3-(3-Chloro-4-ethoxy-phenyl)-thioureido]-phenyl}-acetamide] | 10 (≈ 27.5 µM) | > 10 | 14 |
| > 10 | CC(=O)Nc1ccc(NC(=S)Nc2ccc(CCO)c(Cl)c2)cc1 [Example 864, N-(4-{3-[3-Chloro-4-(2-hydroxy-ethyl)-phenyl]-thioureido}-phenyl)-acetamide] | > 10 | > 10 | 21 |
| 6 (≈ 12.1 µM) | CC(=O)Nc1ccc(NC(=S)Nc2ccc(NC3CCN(Cc4ccccc4)C3)c(Cl)c2)cc1 (stereo not shown) [Example 319, N-(4-{3-[4-(1-Benzyl-pyrrolidin-3-ylamino)-3-chloro-phenyl]-thioureido}-phenyl)-acetamide] | 5 (≈ 10.1 µM) | 7 (≈ 14.2 µM) | 82 |
| > 10 | CCOC(=O)Nc1ccc(NC(=S)Nc2ccc(NC(C)=O)cc2)cc1Cl [Example 313, {4-[3-(4-Acetylamino-phenyl)-thioureido]-2-chloro-phenyl}-carbamic acid ethyl ester] | > 10 | > 10 | 36 |
| > 10 | CC(=O)Nc1ccc(NC(=S)Nc2ccc(OCc3ccccc3)c(Cl)c2)cc1 [Example 269, N-{4-[3-(4-Benzyloxy-3-chloro-phenyl)-thioureido]-phenyl}-acetamide] | 5 (≈ 11.7 µM) | > 10 | 38 |
| > 10 | CC(=O)Nc1ccc(NC(=S)Nc2ccc(NC(=O)CN3CCOCC3)c(Cl)c2)cc1 [Example 366, N-{4-[3-(4-Acetylamino-phenyl)-thioureido]-2-chloro-phenyl}-2-morpholin-4-yl-acetamide] | > 10 | > 10 | 16 |
| 50 (≈ 151 µM) | CC(=O)Nc1ccc(NC(=S)Nc2ccccc2[N+](=O)[O-])cc1 [Example 878, N-{4-[3-(2-Nitro-phenyl)-thioureido]-phenyl}-acetamide] | 40 (≈ 121 µM) | > 10 | 23 |
| 1.5 (≈ 3.86 µM) | CC(=O)Nc1ccc(NC(=S)Nc2cc(Cl)c(Cl)c(Cl)c2)cc1 [Example 936, N-{4-[3-(3,4,5-Trichloro-phenyl)-thioureido]-phenyl}-acetamide] | 1 (≈ 2.57 µM) | > 10 | 51 |
| > 50 | CC(=O)Nc1ccc(NC(=S)Nc2ccc(O)cc2O)cc1 [Example 130, N-{4-[3-(2,4-Dihydroxy-phenyl)-thioureido]-phenyl}-acetamide] | 30 (≈ 94.5 µM) | > 10 | 30 |
| > 50 | CC(=O)Nc1ccc(NC(=S)Nc2ccc(N3CCN(C)CC3)c(Cl)c2)cc1 [Example 243, N-(4-{3-[3-Chloro-4-(4-methyl-piperazin-1-yl)-phenyl]-thioureido}-phenyl)-acetamide] | 40 (≈ 95.7 µM) | > 10 | 4 |
| 10 (≈ 27.3 µM) | COc1cc(O)c(NC(=S)Nc2ccc(NC(C)=O)cc2)cc1Cl [Example 839, N-{4-[3-(5-Chloro-2-hydroxy-4-methoxy-phenyl)-thioureido]-phenyl}-acetamide] | 15 (≈ 41 µM) | > 10 | 17 |
| 40 (≈ 95 µM) | CC(=O)Nc1ccc(NC(=S)Nc2ccc(OCCCN(C)C)c(Cl)c2)cc1 [Example 336, N-(4-{3-[3-Chloro-4-(3-dimethylamino-propoxy)-phenyl]-thioureido}-phenyl)-acetamide] | 50 (≈ 119 µM) | > 10 | 17 |
